Activity calls are given as the source filed them. The calls are words filed in the database; no cut-off is given here.
How the values were obtained:
[1] = Inhibition of […] AKR1B1 expressed in Escherichia coli BL21 using D,L-glyceraldehyde as substrate pretreated for 5 mins followed by substrate addition by spectrophotometric method; details: for Ki: read-out: Ki(app)
[2] = molecular target: Aldo-keto reductase family 1 member B10 (Homo sapiens, UniProt O60218); assay: Inhibition of N-terminal His10-tagged AKR1B10 (unknown origin) expressed in Escherichia coli BL21 using D,L-glyceraldehyde as substrate pretreated for 5 mins followed by substrate addition by spectrophotometric method
HT-1080 = assay: Cytotoxicity against human HT1080 cells after 72 hrs by MTT assay; format: functional, cell-based; details: HT-1080, 72 h
[3] = Selectivity ratio of IC50 for N-terminal His10-tagged AKR1B10 (unknown origin) expressed in Escherichia coli BL21 to IC50 for […] AKR1B1 expressed in Escherichia coli BL21
Cricetulus griseus = organism: Cricetulus griseus; assay: Inhibition of […] AKR1B1 expressed in Escherichia coli BL21 up to 10 uM using D,L-glyceraldehyde as substrate pretreated for 5 mins followed by substrate addition by spectrophotometric method

Aldo-keto reductase family 1 member B10, sequence (O60218 whole entry): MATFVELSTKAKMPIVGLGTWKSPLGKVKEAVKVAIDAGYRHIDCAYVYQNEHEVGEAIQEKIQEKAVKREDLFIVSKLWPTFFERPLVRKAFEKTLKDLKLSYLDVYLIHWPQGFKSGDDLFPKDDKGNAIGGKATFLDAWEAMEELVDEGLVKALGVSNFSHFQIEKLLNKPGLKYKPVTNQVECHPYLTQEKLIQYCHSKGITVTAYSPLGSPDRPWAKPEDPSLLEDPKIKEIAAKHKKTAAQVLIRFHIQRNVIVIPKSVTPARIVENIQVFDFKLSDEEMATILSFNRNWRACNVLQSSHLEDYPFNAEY

SMILES | IC50 [1] [nM] | IC50 [2] [nM] | Ratio IC50 [3] | inhibition (Cricetulus griseus) | Ki [1] [nM] | IC50 (HT-1080) [nM]
Cc1nc2c(-c3ccc(Cl)cc3)nc3ccccc3c2c(=O)n1CC(=O)O | 210 | 7860 | 37 | – | 130 | > 100000
Cc1nc2c(-c3ccc(Br)cc3)nc3ccccc3c2c(=O)n1CC(=O)O | 200 | 10000 | 50 | – | 150 | > 100000
O=C(O)Cn1c(Cc2ccc(Cl)cc2)nc2c(-c3ccccc3)nc3ccccc3c2c1=O | 660 | 5870 | 9 | – | – | –
CCc1nc2c(-c3ccc(Cl)cc3)nc3ccc(F)cc3c2c(=O)n1CC(=O)O | 410 | 3890 | 9 | – | 500 | –
Cc1nc2c(-c3ccc(Cl)cc3)nc3ccc(Cl)cc3c2c(=O)n1CC(=O)O | 1540 | 9610 | 6 | – | – | 30200
Cc1ccc2nc(-c3ccc(Cl)cc3)c3nc(C)n(CC(=O)O)c(=O)c3c2c1 | 4920 | 28500 | 6 | – | – | > 100000
Cc1nc2c(-c3ccc(Br)cc3)nc3ccc(F)cc3c2c(=O)n1CC(=O)O | 570 | 9610 | 17 | – | – | > 100000
Nn1c(-c2ccc(Br)cc2)nc2c(-c3ccc(Br)cc3)nc3ccc(Cl)cc3c2c1=O | – | – | – | inactive | – | –
COc1cccc2c1C(=O)c1c(O)c3c(c(O)c1C2=O)C[C@@](O)(C(=O)CO)C[C@@H]3O[C@H]1C[C@H](N)[C@H](O)[C@H](C)O1 [DOXORUBICIN] | – | – | – | – | – | 5.8
O=C(O)Cn1c(Cc2ccccc2)nc2c(-c3ccc(Cl)cc3)nc3ccccc3c2c1=O | 2650 | 2350 | 1 | – | – | –
Cc1nc2c(-c3ccccc3)nc3ccccc3c2c(=O)n1CC(=O)O | 430 to 460 | 6390 | 14 | – | 440 | –

Continued, in another order:

IC50 [1] [nM] | IC50 [2] [nM] | Ratio IC50 [3] | inhibition (Cricetulus griseus) | SMILES | Ki [1] [nM] | IC50 (HT-1080) [nM]
350 | 8180 | 23 | – | Cc1nc2c(-c3ccc(Cl)cc3)nc3ccc(F)cc3c2c(=O)n1CC(=O)O | 240 | > 100000
120 | 4710 | 39 | – | CCc1nc2c(-c3ccc(Cl)cc3)nc3ccccc3c2c(=O)n1CC(=O)O | 73 | –
1920 | 13800 | 7 | – | Cc1nc2c(-c3ccc(Br)cc3)nc3ccc(Cl)cc3c2c(=O)n1CC(=O)O | – | > 100000
1570 | 16300 | 10 | – | Cc1nc2c(-c3ccc(Br)cc3)nc3ccc(Br)cc3c2c(=O)n1CC(=O)O | – | > 100000
760 | 17000 | 22 | – | COc1ccc(-c2nc3ccc(Cl)cc3c3c(=O)n(CC(=O)O)c(C)nc23)cc1 | – | 78100
2220 | 17800 | 8 | – | Cc1nc2c(-c3ccc(Cl)cc3)nc3ccc(Br)cc3c2c(=O)n1CC(=O)O | – | > 100000
190 | 3330 | 18 | – | CCCc1nc2c(-c3ccc(Cl)cc3)nc3ccccc3c2c(=O)n1CC(=O)O | 130 | –
260 | 10000 | 38 | – | COc1ccc(-c2nc3ccc(F)cc3c3c(=O)n(CC(=O)O)c(C)nc23)cc1 | 240 | > 100000
3140 | 15000 | 5 | – | COc1ccc2nc(-c3ccc(Cl)cc3)c3nc(C)n(CC(=O)O)c(=O)c3c2c1 | – | 86700
1010 | 2990 | 3 | – | O=C(O)Cn1c(Cc2ccc(Cl)cc2)nc2c(-c3ccc(Cl)cc3)nc3ccccc3c2c1=O | – | –
– | – | – | inactive | Nn1c(-c2ccc(Cl)cc2)nc2c(-c3ccc(Cl)cc3)nc3ccc(Cl)cc3c2c1=O | – | –

From ChEMBL document CHEMBL4152238, “Design, synthesis, structure-activity relationships and X-ray structural studies of novel 1-oxopyrimido[4,5-c]quinoline-2-acetic acid derivatives as selective and potent inhibitors of human aldose reductase” (Eur J Med Chem, 2018)
